Read-outs that look alike come from different tables or passages of the source.
Tests used:
swine coronary arteries = assay: In vitro vasorelaxation in isolated swine coronary arteries; format: cell-based
Experimental: Swine coronary arteries are obtained from a local slaughter house, dissected carefully and cleaned of fat, blood and adhering tissue. Rings approximately 2-3 mm wide are cut and transferred to water-jacketed tissue baths (10 mL) filled with warm (37° C.), oxygenated (O2/CO2:95%/5%) Krebs-Henseleit buffer and mounted on L-shaped hooks between stainless steel rods and a force transducer. […] PGF2a, before being exposed to 3 μM PGF2a.

A2 receptor = target: T1, A2 receptor (Rattus norvegicus, UniProt P30543); assay: A2 adenosine receptor binding, displacement of 3H-CGS 21680, rat brain striatum membranes; conditions: 3H-CGS 21680 displacement, rat brain striatum membranes, 25° C., 90 minutes; read-out: Adenosine Receptor Binding Activity/IC50 (nM) A2
T1 construct: using membranes from rat brain striatum; from tissue; host or cells: rat brain striatum membranes
Experimental: Non-specific binding is assessed in the presence of 20 μm 2-chloroadenosine.
(§1) The assays are run in glass test tubes in duplicate at 25° C. Once the membranes are added, the tubes are vortexed and incubated at 25° C. for 60 minutes (A1 assay) or 90 minutes (A2 assay) on a rotary shaker. The assay tubes are vortexed halfway through the incubation and again near the end. The assays are terminated by rapid filtration through 2.4 cm GF/B filters using a Brandel Cell Harvestor. The test tubes are washed three times with cold 50 mM tris-HCl (pH 7.7 or 7.4), with filtration being completed within 15 seconds. The damp filter circles are placed in glass scintillation vials filled with 10 ml of Aquasol II (New England Nuclear). The vials are allowed to shake overnight on a rotary shaker and are placed into a liquid scintillation analyzer for two minute counts. IC50 values for receptor binding, i.e. the concentration at which a compound of Formula I displaced the radiolabeled standard, are obtained using a curve-fitting computer program (RS/1, Bolt, Beranek and Newman, Boston, Mass.).

A1 receptor = target: T2, A1 receptor (Rattus norvegicus, UniProt P25099); assay: A1 adenosine receptor binding, displacement of 3H-CHA, whole rat brain membranes; conditions: 3H-CHA displacement, 25° C., 60 minutes
T2 construct: using a membrane preparation of whole rat brain; from tissue; host or cells: whole rat brain membranes
T2 sequence (P25099 1-326): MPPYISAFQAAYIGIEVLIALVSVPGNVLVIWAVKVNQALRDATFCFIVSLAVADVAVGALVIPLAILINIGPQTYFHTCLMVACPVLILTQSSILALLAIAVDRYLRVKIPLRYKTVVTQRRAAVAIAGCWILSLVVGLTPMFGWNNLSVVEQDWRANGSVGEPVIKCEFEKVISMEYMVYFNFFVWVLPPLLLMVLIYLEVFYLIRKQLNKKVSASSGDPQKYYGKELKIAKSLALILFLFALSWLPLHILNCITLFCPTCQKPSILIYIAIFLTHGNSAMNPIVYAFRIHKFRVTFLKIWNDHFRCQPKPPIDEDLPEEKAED
Experimental: Non-specific binding is assessed in the presence of 1 mM theophylline.
as §1

[1] = Sus scrofa, read-out: Vasorelaxation in Swine Coronary Artery/IC50 (μM)
[2] = 50% reduction in tension of rings contracted with 3 μM PGF2a, read-out: Vasorelaxation in Swine Coronary Artery/IC50

T1 sequence (P30543 whole entry): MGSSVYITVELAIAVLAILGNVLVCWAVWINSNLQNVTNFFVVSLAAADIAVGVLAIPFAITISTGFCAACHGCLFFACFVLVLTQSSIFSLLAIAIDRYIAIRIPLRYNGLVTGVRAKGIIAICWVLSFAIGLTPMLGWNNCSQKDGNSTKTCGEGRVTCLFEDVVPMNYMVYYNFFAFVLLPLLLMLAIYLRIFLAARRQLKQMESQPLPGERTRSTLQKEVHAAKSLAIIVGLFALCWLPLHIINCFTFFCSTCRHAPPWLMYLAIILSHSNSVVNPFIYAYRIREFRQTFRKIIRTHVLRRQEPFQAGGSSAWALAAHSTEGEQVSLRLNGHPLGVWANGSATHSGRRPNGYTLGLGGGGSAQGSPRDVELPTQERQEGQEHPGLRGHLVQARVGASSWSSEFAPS

Row | Compound | IC50 (swine coronary arteries; [1]) [µM] | IC50 (A2 receptor) [nM] | IC50 (A1 receptor) [nM] | IC50 (swine coronary arteries; [2]) [µM]
1 | CCNC(=O)C1CC(n2cnc3c(NCCc4nccs4)ncnc32)C(O)C1O (racemic) [Example 25, (±)-N^6-[2-(2″-thiazolyl)ethyl]-carbocyclic adenosine-5′-N-ethyl carboxamide] | 0.64 | 355 | 1260 | 
2 | (2S)-2a,3a-dihydroxy-4β-[N6-[2-(5-chloro-2-thienyl)-(1R)-1-methylethyl]amino-9-adenyl]cyclopentane-1β-N-ethylcarboxamide-2,3-carbonate [Example 44] |  | 331 | 55 | 0.316
3 | CCC(Cc1ccc(Cl)s1)Nc1ncnc2c1ncn2[C@@H]1O[C@H](CO)[C@@H](O)[C@H]1O (stereo partly shown) [Example 21, N^6-[1-(5″-chlorothien-2″-yl)-2-butyl]adenosine] |  | 14.8 | 0.09 | 
4 | CC(Cc1nccs1)Nc1ncnc2c1ncn2[C@@H]1O[C@H](CO)[C@@H](O)[C@H]1O (stereo partly shown) [Example 20, N^6-[1-(thiazol-2-yl)prop-2-yl]-adenosine] |  | 158 | 3.98 | 
5 | CO[C@@H]1[C@H](O)[C@@H](CO)O[C@H]1n1cnc2c(N[C@H](C)Cc3sccc3Cl)ncnc21 [Example 47, N^6-[2-(3-chloro-2-thienyl)-(1R)-1-methylethyl]-2′-O-methyladenosine] | 5.7 | 2820 | 23 | 
6 | CCNC(=O)[C@H]1C[C@@H](n2cnc3c(NC(CC)Cc4sccc4Cl)ccnc32)[C@H](O)[C@@H]1O (stereo partly shown) [Example 37] | 0.45 | 110 | 16.2 | 
7 | CCNC(=O)[C@H]1C[C@@H](n2cnc3c(N[C@H](C)Cc4ccc(Cl)s4)[n+]([O-])cnc32)[C@H](O)[C@@H]1O [Example 35, (2S)-2a,3a-dihydroxy-4β-[N6-[2-(5-chloro-2-thienyl)-(1R)-1-methylethyl]amino-9-adenyl]cyclopentane-1β-N-ethylcarboxamide-N^1-oxide] | 3.3 | 6350 | 1090 | 
8 | OC[C@H]1O[C@@H](n2cnc3c(NCCSc4nc5ccccc5s4)ncnc32)[C@H](O)[C@@H]1O [Example 10, N^6-[2-(2′-thiobenzothiazolyl)-ethyl]adenosine] |  | > 1000 | 3.8 | 
9 | CCNC(=O)[C@H]1C[C@@H](n2cnc3c(N[C@H](C)Cc4ccc(Cl)s4)ncnc32)[C@@H]2OC(OCC)O[C@@H]21 (stereo partly drawn) [Example 43, (2S)-2a,3a-dihydroxy-4β-[N6-[2-(5-chloro-2-thienyl)-(1R)-1-methylethyl]amino-9-adenyl]cyclopentane-1β-N-ethylcarboxamide ethoxymethylene acetal] | 7.83 | > 10000 | 8430 | 
10 | CCNC(=O)C1CC(n2cnc3c(N[C@H](C)Cc4ccc(Cl)s4)ncnc32)C2OC(C)(C)OC12 (single isomer, unassigned; (-)) [6(1)] |  | > 1000 | > 1000 | 19.1
11 | CCNC(=O)C1CC(n2cnc3c(NC(CC)Cc4sccc4Cl)ccnc32)C(O)C1O (single isomer, unassigned) [Example 39, [1S-[1a,2b,3b,4a(S*)]]4-[7-[[2-(3-chloro-2-thienyl)-1-ethylethyl]amino]-3H-imidazo[4,5-b]pyridin-3-yl]-N-ethyl-2,3-dihydroxycyclopentane-carboxamide] |  | 46.8 | 3.98 | 
12 | CCNC(=O)C1CC(n2cnc3c(NCCc4ccsc4)ncnc32)C(O)C1O (racemic) [Example 28, (±)-N^6-[1-(thiopen-3-yl)ethan-2-yl]carbocyclic adenosine-5′-N-ethyl carboxamide] |  | > 1000 | 417 | 
13 | Cc1nc(CCNc2ncnc3c2ncn3[C@@H]2O[C@H](CO)[C@@H](O)[C@H]2O)cs1 [Example 14, N^6-[2-(2′-methyl-4′-thiazolyl)-ethyl]adenosine] |  | > 1000 | 79.4 | 
14 | CCNC(=O)[C@H]1C[C@@H](n2cnc3c(N[C@H](C)Cc4ccc(Cl)s4)ncnc32)[C@H](OC(=O)OC)[C@@H]1OC(=O)OC [Example 42, (2S)-2a,3a-bis-methoxycarbonyloxy-4β-[N6-[2-(5-chloro-2-thienyl)-(1R)-1-methylethyl]amino-9-adenyl]cyclopentane-1β-N-ethylcarboxamide] | 2.44 | > 10000 | > 1000 | 
15 | OC[C@H]1O[C@@H](n2cnc3c(NCc4nc(-c5ccccc5)cs4)ncnc32)[C@H](O)[C@@H]1O [Example 19] |  | 1000 | 36 | 0.75
16 | CCNC(=O)[C@H]1O[C@@H](n2cnc3c(NC4CC=CCC4c4cccs4)ncnc32)[C@H](O)[C@@H]1O (single isomer, unassigned) [Example 5, N6-[trans-2-(thiophen-2-yl)cyclohex-4-en-1-yl]adenosine-5′-N-ethylcarboxamide] | 0.068 | 91 | 4.26 | 
17 | CC(C)(Cc1cccs1)Nc1ncnc2c1ncn2[C@@H]1O[C@H](CO)[C@@H](O)[C@H]1O [Example 17, N^6-[2-(1,1-dimethyl-2′-thiophenyl)ethyl]adenosine] |  | 5250 | 67.6 | 18.8
18 | OC[C@H]1O[C@@H](n2cnc3c(NCCc4nc(-c5ccccc5)cs4)ncnc32)[C@H](O)[C@@H]1O [Example 16, N^6-[2-(4′-phenyl-2′-thiazolyl)-ethyl]adenosine] |  | > 1000 | 1.7 | 
19 | CCNC(=O)[C@H]1C[C@@H](n2cnc3c(N[C@H](C)Cc4ccc(Cl)s4)ncnc32)[C@H](OC(=O)NC)[C@@H]1OC(=O)NC [Example 45] | 4.1 | > 10000 | 6350 | 
20 | CCNC(=O)C1CC(n2cnc3c(N[C@H](CC)Cc4sccc4Cl)ncnc32)C(O)C1O (single isomer, unassigned; (-)) [Example 34] |  | 23 | 1.6 | 0.072
21 | CCNC(=O)[C@H]1C[C@@H](n2cnc3c(N[C@H](CC)Cc4ccc(Cl)s4)ccnc32)[C@H](O)[C@@H]1O [Example 41] |  | 158 | 14.2 | 
22 | CCNC(=O)[C@H]1O[C@@H](n2cnc3c(NC4CC=CCC4c4cccs4)ncnc32)[C@H](O)[C@@H]1O (single isomer, unassigned) [Example 22, N^6-[trans-2-(thiophen-2-yl)-cyclohex-4-en-1-yl]adenosine-5-N-ethyl carboxamide] | 0.1 | 29.5 | 2.69 | 
23 | CCNC(=O)C1CC(n2cnc3c(NC(C)Cc4cccs4)ncnc32)C(O)C1O (single isomer, unassigned; (-)) [Example 27] | 0.043 | 29.5 | 5.01 | 
24 | C[C@H](Cc1sccc1Cl)Nc1ncnc2c1ncn2[C@@H]1O[C@H](CO)[C@@H](O)[C@H]1O [Example 32, N^6-[1-methyl-2-(3-chlorothien-2-yl)ethyl]adenosine] |  | 45 |  | 
25 | CCC(Cc1sccc1Cl)Nc1ncnc2c1ncn2[C@@H]1O[C@H](CO)[C@@H](O)[C@H]1O (stereo partly shown) [Example 31, N^6-[1-ethyl-2-(3-chlorothien-2-yl)ethyl]adenosine] |  | 8.9 | 0.03 | 
26 | CCNC(=O)[C@H]1C[C@@H](n2cnc3c(N[C@@H](C)Cc4ccc(Cl)s4)ccnc32)[C@H](O)[C@@H]1O (relative stereo) [Example 36, [1S-[1a,2b,3b,4a(S*)]]-4-[7-[[2-(5-chloro-2-thienyl)-1-methylethyl]amino]-3H-imidazo[4,5-b]pyridin-3-yl]-N-ethyl-2,3-dihydroxycyclopentanecarboxamide] |  | 43.4 | 8.8 | 0.493

Reference: patent publication US6392049B1, “Process for preparing 2,4-dihydroxypyridine and 2,4-dihydroxy-3-nitropyridine” (Aventis Pharmaceuticals Inc., priority 1996, dated 2002)
